In US7862798B2, “Vitamin-targeted imaging agents” (Endocyte, Inc., priority 2002, dated 2011):

How the values were obtained:
[1] = biological target: T1, folate receptor (FR) on FR-positive KB cells (Homo sapiens, UniProt P15328); assay: Relative affinity assay (blocking of 3H-folic acid binding to KB cells); conditions: for IC50: 100 nM 3H-folic acid, KB cells, 15 min on ice, triplicate; for RA (relative affinity): inverse molar ratio to displace 50% of 3H-folic acid, folic acid set to 1
T1 construct: FR-positive KB cells were gently trypsinized; endogenous in cells; host or cells: KB cells
T1 sequence (P15328 25-234): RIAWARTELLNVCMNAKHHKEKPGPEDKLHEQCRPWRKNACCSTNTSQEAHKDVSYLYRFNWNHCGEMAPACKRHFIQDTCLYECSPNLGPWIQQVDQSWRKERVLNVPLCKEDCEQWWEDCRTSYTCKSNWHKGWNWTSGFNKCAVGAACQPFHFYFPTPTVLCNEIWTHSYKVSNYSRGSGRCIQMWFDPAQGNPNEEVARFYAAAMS
Method: The relative affinity of various folate derivatives was determined according to the method described by Westerhoff et al. (Mol. Pharm., 48: 459-471 (1995)) with slight modification. Briefly, FR-positive KB cells were gently trypsinized in 0.25% trypsin/PBS at room temperature for 3 minutes and then diluted in FFRPMI/HIFCS. Following a 5 min 800×g spin and one PBS wash, the final cell pellet was suspended in FFRPMI 1640 (no serum). […] Samples were centrifuged at 10,000×g for 5 min, cell pellets were suspended in buffer, were transferred to individual vials containing 5 mL of scintillation cocktail, and were then counted for radioactivity.
Likewise, values lower than unity reflect weaker affinity, and values higher than unity reflect stronger affinity.
Following a 15-minute incubation at 4° C., cells were rinsed free of unbound material and counted for residual cell-associated radioactivity.

[2] = biological target: T2, folate receptor (FR) on KB cells (Homo sapiens, UniProt P15328); assay: Concentration-dependent cell uptake (Scatchard analysis); type: binding; conditions: 2 hours at 37° C., read-out: KD of binding (Scatchard analysis)
T2 construct: FR-positive KB cells were gently trypsinized; endogenous in cells; host or cells: KB cells
T2 sequence (P15328 25-234): as above
Method: KB cells were seeded in 12-well Falcon plates and allowed to form sub-confluent monolayers overnight. Following one rinse with 1 mL of fresh FERPMI/HIFCS, each well received 1 mL of FFRPMI/HIFCS containing increasing concentrations of ^99mTc-EC20. Cells were incubated for 2 hours at 37° C. and then rinsed four times with 1 mL of ice-cold PBS, pH 7.4. The monolayers were dissolved in 0.5 mL of PBS, pH 7.4 containing 1% sodium dodecyl sulfate for 15 min at room temperature and then counted for radioactivity using a Packard gamma counter. Protein content was determined as described above, and final tabulated values were expressed in terms of molecules of EC20 per cell.
The particular KB cells used were determined to bind a maximum of four million molecules of the folate radiopharmaceutical per cell.
This HPLC-purified radiolabeled material (Peak B material) was collected and then added to cultured KB cells.

[3] = system: KB tumor; conditions: reported previously; cited from earlier work

Compound	IC50 [1]	RA (relative affinity) [1]	RA (relative affinity) ([1]; listed as Re-EC20 isomer A)	Kd [2]	tracer uptake in a KB tumor [3]
Nc1nc2ncc(CNc3ccc(C(=O)N[C@H](CCC(=O)NC[C@@H]4[NH2+][Re-]56(=[O])[S]C[C@@H](C(=O)O)[N]5C(=O)[C@H](CC(=O)O)[N]6C4=O)C(=O)O)cc3)nc2c(=O)[nH]1 (single isomer, unassigned; isomer 1) [EC20:Re isomer 1]	0.083 µM	1.42	1.42		
Nc1nc2ncc(CNc3ccc(C(=O)NC(CCC(=O)NCC(N)C(=O)NC(CC(=O)O)C(=O)NC(CS)C(=O)O)C(=O)O)cc3)nc2c(=O)[nH]1 (stereo not shown) [EC20]	0.128 µM	0.92		~0.003 µM	
^99mTc-12-amino-3,3,9,9-tetramethyl-5-oxa-4,8 diaza-2,10-dodecanedinoe dioxime (OXA) folate conjugate					~7 % ID/g
